In ChEMBL document CHEMBL1156397, “A benzylisoquinoline alkaloid from Doryphora sassafras” (J Nat Prod, 2001):

Target: Kappa-type opioid receptor (Cavia porcellus) (UniProt P41144)
Assay: Displacement of [3H]U69593 from kappa opioid receptor in guinea pig brain membrane at 100 uM by Betaplate liquid scintillation counter
Assay type: cell membranes

Chain of Kappa-type opioid receptor (Cavia porcellus) (P41144 whole entry): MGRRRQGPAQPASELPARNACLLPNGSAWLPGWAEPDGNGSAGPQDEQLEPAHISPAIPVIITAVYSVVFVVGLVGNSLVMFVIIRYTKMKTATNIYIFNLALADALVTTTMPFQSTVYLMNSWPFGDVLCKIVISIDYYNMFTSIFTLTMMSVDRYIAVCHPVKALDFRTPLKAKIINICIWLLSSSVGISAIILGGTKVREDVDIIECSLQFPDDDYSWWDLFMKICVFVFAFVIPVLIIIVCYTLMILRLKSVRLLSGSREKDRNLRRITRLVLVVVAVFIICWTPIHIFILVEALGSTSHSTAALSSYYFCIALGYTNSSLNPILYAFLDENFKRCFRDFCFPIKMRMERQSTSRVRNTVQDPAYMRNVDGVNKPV

Activity: 50%
Compound: COc1ccc(Cc2c3cc4c(cc3cc[n+]2C)OCO4)cc1
